Laboratory results reported in patent publication US20210330606A1, “GLUCOSE CONSUMPTION ACCELERATOR AND GLYCOLYSIS ACCELERATOR” (SHINKO SANGYO Co., Ltd., priority 2018, published 2021).
“And” between values parts separate entries of the source, which are not always exact repeats. Equal entries are not always repeated.

Experiments:
[1] = system: Rat-derived fibroblasts (Py-3Y1-S2, subculture strain); experiment: Glucose consumption of rat-derived fibroblasts (relative value, control = 100); type: cell-based
Source text: As drugs, 2-amino-1-cyclohexylethanol (Matrix Biochemicals), 2-aminoethanol (Tokyo Chemical Industry Co., Ltd.), 1-amino-2-propanol (Wako Pure Chemical Industries, Ltd.), 2-amino-1-phenylethanol (Tokyo Chemical Industry Co., Ltd.), 1, 3-bis[tris(hydroxymethyl)-methylamino]propane (Tokyo Chemical Industry Co., Ltd.), N-cyclohexylethanolamine (Tokyo Chemical Industry Co., Ltd.), diethanolamine (Wako Pure Chemical Industries, Ltd.), diethylamine (Wako Pure Chemical Industries, Ltd.), dipropylamine (Tokyo Chemical Industry Co., Ltd.), HEPES sodium salt (MP Biomedicals), metoprolol tartrate (Tokyo Chemical Industry Co., Ltd.), morpholine (Wako Pure Chemical Co., Ltd.), octopamine (MP Biomedicals), propylamine (Tokyo Chemical Industry Co., Ltd.), triethylamine (Wako Pure Chemical Co., Ltd.), timolol maleate (Wako Pure Chemical Industries, Ltd.) and tris(hydroxymethyl)aminomethane (Wako Pure Chemical Industries, Ltd.) were used. Each drug was dissolved in distilled water to prepare a sample.
In the culture, DMEM (Nissui Pharmaceutical Co., Ltd.) was used as a culture medium. […] As a control of the drug, the culture was performed in the same manner except that distilled water to which the drug was not added was added to the culture solution instead of the sample.
After the addition of the drug, the glucose concentration of each of the culture solutions was measured immediately after the start of the culture and after the completion of the culture. The glucose concentration was measured using a glucose assay kit (Waco). Then, the glucose concentration after the completion of the culture was divided by the glucose concentration immediately after the start of the culture (5.6 mmol per liter) to calculate the glucose consumption.
The fibroblasts were cultured. […] Streptozotocin, alloxan, and nicotinamide are drugs all known to produce symptoms of diabetes when administered to the body.
Next, samples of streptozotocin, alloxan, and nicotinamide plus 2-amino-1-phenylethanol (2-A-1-P) were prepared in the same manner. The concentration of 2-A-1-P was 1 mg/ml. The relative value of the glucose consumption was calculated in the same manner.
The fibroblasts were cultured.
The concentration of 2-A-1-P was 0.5 mg/ml. The relative value of the glucose consumption was calculated in the same manner.

[2] = system: Male mice of ICR strain; experiment: Blood glucose level of mice after oral glucose load with the drug; type: in vivo, mouse; details: drug 50 mg/kg + glucose 2000 mg/kg oral
Experimental: As a drug, 2-amino-1-phenylethanol was used. First, glucose (KANTO CHEMICAL CO., INC.) was dissolved in water for injection so as to achieve a concentration of 200 mg/ml, thereby preparing a glucose solution. Next, the drug was dissolved in the water for injection, and then the glucose solution was added thereto so that the drug and glucose had final concentrations of 2.5 mg/ml and 100 mg/ml, respectively, thereby preparing a sample. As a control of the drug, the culture was performed in the same manner except that 100 mg/ml glucose solution to which the drug was not added was used instead of the sample.
Male mice of 6-week-old ICR strain were purchased from Japan SLC, Inc., and preliminary rearing was carried out for about 1 week to check there was no abnormality in performance status. The conditions for the preliminary rearing were as follows: 4 mice each were housed in a polycarbonate cage, room temperature was 23° C.±3° C., and illumination time was 12 hours/day. Diets (mice and rat chow, product of Nosan Corporation) and drinking water (tap water) were freely ingested.
After the preliminary rearing, the mice were fasted for about 21 hours, and then body weight and blood glucose levels were measured. The mice were divided into the total of two groups, namely, a test group and a control group to ensure that there was no variation in blood glucose levels between the groups. The number of animals in each group was eight.
After the grouping, mice of the test group and the control group were orally administered a single dose of the sample and the control, respectively, using a gastric sonde to a dose volume of 20 ml/kg. That is, the test group mice were administered the drug and glucose at doses of 50 mg/kg and 2000 mg/kg, respectively, and the control group mice were administered glucose at a dose of 2000 mg/kg. With the time of the administration being regarded as 0 minutes, the blood glucose level was measured at 30 minutes, 60 minutes, 90 minutes, and 120 minutes. The blood glucose level was measured by using an ACCU-CHEK Aviva (Roche Diagnostics K.K.), blood was collected by inserting an injection needle into the tip of the tail, and the blood glucose level was measured for the collected blood.
As to the blood glucose levels at 0 minutes, 30 minutes, 60 minutes, 90 minutes and 120 minutes, the test group and the control group were compared by t-test. The significance levels were 5% and 1%.
In addition, the area under the curves (AUCs) were calculated for the measured blood glucose levels. The AUC was calculated by calculating the area surrounded by the measurement curve and a straight line parallel to the time axis and passing through the measured value at the time of administration in the graph with the measured value on the vertical axis and the time on the horizontal axis. Then, the test group and the control group were compared by t-test for AUC in the same manner as the comparison for the blood glucose level.

[3] = system: Py-3Y1-S2, TE-13, VERO and HepG2 cells; experiment: Lactate concentration after 2 to 3 days culture, lactate metabolism, mean over four cell types (Example 9); type: cell-based, rat, human, African green monkey; details: drug 0.5 mg/ml, 2 to 3 days (48 to 72 hours) culture, mean of four experiments
Experimental: After the addition of the drug, the culture solution was diluted so that the weight ratio of the culture solution to distilled water was 1:19, and the lactate concentration of the diluted culture solution was measured. The lactate concentration was measured using a lactate assay kit (product name: Lactate Assay Kit-WST, product of Dojindo Laboratories).
First, samples of 2-amino-1-cyclohexylethanol (2-amino-1-cyclohexyl EOH) and 2-amino-1-phenylethanol (2-amino-1-phenyl EOH) were prepared in the same manner as in Example 1. Four types of cells were used as in Example 8, and each of the cells was cultured under the same conditions as in Example 1. […] Thereafter, the culture time was lengthened to 2 to 3 days (48 to 72 hours) compared to Example 8. As a control 1, the culture was performed in the same manner except that distilled water to which the drug was not added was added to the culture solution instead of the sample. As a control 2, the culture was performed in the same manner as the […] except that a sample of biguanide prepared in the same manner as in Example 1 was added to the culture solution instead of the sample. Then, the lactate concentration in each sample was measured in the same manner as in Example 6. Each of the four cells was used for a total of four experiments.

[4] = system: rat-derived liver cancer cells (Ry121B, subculture line); details: drug 1 mg/ml, control = 100
Experimental: As a control, the culture was performed in the same manner except that distilled water to which the drug was not added was added to the culture solution instead of the sample.

SMILES: NCC(O)c1ccccc1 (centres unmarked) [2-amino-1-phenylethanol]
- relative value of glucose consumption ([1]; Example 2, fibroblasts, drug 0.1 mg/ml, control = 100): about 130
- relative value of glucose consumption ([1]; Example 2, fibroblasts, drug 0.25 mg/ml, control = 100): about 140
- relative value of glucose consumption ([1]; Example 2, fibroblasts, drug 0.5 mg/ml, control = 100): about 160
- relative value of glucose consumption ([1]; Example 3, 2-A-1-P 1 mg/ml in addition to alloxan 1 mg/ml): ≥ 100
- relative value of glucose consumption ([1]; Example 3, 2-A-1-P 1 mg/ml in addition to nicotinamide 1 mg/ml): ≥ 100
- relative value of glucose consumption ([1]; Example 3, 2-A-1-P 1 mg/ml in addition to streptozotocin 1 mg/ml): ≥ 100
- relative value of glucose consumption ([1]; Example 4, 2-A-1-P 0.5 mg/ml in addition to V2O5): about 140
- relative value of glucose consumption ([1]; Example 4, 2-A-1-P 0.5 mg/ml in addition to concanavalin A 100 μg/ml): about 150
- relative value of glucose consumption ([1]; Example 4, 2-A-1-P 0.5 mg/ml in addition to vanadium): about 145
- relative value of glucose consumption ([1]; fibroblasts, drug 0.5 mg/ml, 12 to 24 hours, control = 100 (FIG. 1A, 2A)): significantly increased glucose consumption
- relative value of glucose consumption ([1]; fibroblasts, drug 1 mg/ml, 12 to 24 hours, control = 100 (FIG. 1B, 2B)): significantly increased glucose consumption
- AUC Calculated value (blood glucose) ([2]; individual mice, 0-120 minutes above value at administration): 173 mg/dL·h and 142 mg/dL·h (2×) and 177 mg/dL·h and 171 mg/dL·h and 132 mg/dL·h and 127 mg/dL·h and 258 mg/dL·h
- blood glucose level ([2]; individual mice, 0 minutes (time of administration)): 46 mg/dL and 53 mg/dL and 61 mg/dL and 70 mg/dL and 54 mg/dL and 60 mg/dL and 86 mg/dL and 59 mg/dL
- blood glucose level ([2]; individual mice, 30 minutes post-administration): 177 mg/dL and 194 mg/dL (2×) and 222 mg/dL and 165 mg/dL and 202 mg/dL and 219 mg/dL and 256 mg/dL
- blood glucose level ([2]; individual mice, 60 minutes post-administration): 151 mg/dL and 136 mg/dL (2×) and 180 mg/dL and 171 mg/dL and 141 mg/dL and 160 mg/dL and 223 mg/dL
- blood glucose level ([2]; individual mice, 90 minutes post-administration): 121 mg/dL and 93 mg/dL and 138 mg/dL (2×) and 117 mg/dL and 91 mg/dL and 120 mg/dL and 176 mg/dL
- blood glucose level ([2]; individual mice, 120 minutes post-administration): 116 mg/dL and 91 mg/dL and 112 mg/dL and 113 mg/dL and 108 mg/dL and 79 mg/dL and 111 mg/dL and 134 mg/dL
- AUC Mean value ± Standard error (blood glucose) ([2]; test group No. 1 to No. 8): 165 ± 15 mg·h/dL
- lactate concentration in the culture solution compared to control 1 [3]: equivalent to that of control 1
- relative value of glucose consumption [4]: about 140
